Reference: patent US9175013B2, “Fused aminodihydrothiazine derivatives” (Eisai R&D Management Co., Ltd., priority 2011, dated 2015)
Where two headings read alike, the source gives them in different places.

Assays:
[1] = system: Aβ peptide production in rat primary neuronal culture; experiment: In vitro cellular assay: quantification of Aβ peptide in culture of neurons from rat fetus brain; type: cell-based, Wistar rat; conditions: Primary cortical neuron
Procedure: Quantification of Aβ Peptide in Culture of Neurons from Rat Fetus Brain
Primary neuronal cultures were prepared from the cerebral cortex of embryonic day 18 Wistar rats (Charles River, UK). Specifically, the embryos were aseptically removed from pregnant rats under ether anesthesia. The brain was isolated from the embryo and immersed in HBSS (Sigma Aldrich #H9269) containing 10 mM HEPES (Gibco #15630-056). The cerebral cortex was collected from the isolated brain under a stereoscopic microscope. The cerebral cortex fragments collected were enzymatically treated in an enzyme solution containing 0.05% trypsin-EDTA solution (GIBCO, #25300) at 37° C. for 20 minutes to disperse the cells. The cells were then washed twice and then gently resuspended in Neurobasal medium (Gibco #21103) supplemented with 2% B27 supplement (GIBCO #17504-044), 0.5 mM L-glutamine (GIBCO #25030), 1×N2 (GIBCO #17502-048), 100 μg/ml Pen/Strep (GIBCO 15140-122) and 5% heat inactivated FCS (PAA #A15-701). The cell dispersion was filtered through a 40-μm nylon mesh (BD Falcon #352340) to remove the remaining cell mass, and thus a neuronal cell suspension was obtained. The neuronal cell suspension was diluted with the medium above and then plated in a volume of 100 μL/well at an initial cell density of 3.25×10^5 cells/ml in poly-D-lysine coated 96-well culture plate (Greiner #655940). The plated cells were cultured in the culture plate at 37° C. in 5% CO2-95% air for 24 hrs. The total amount of the medium was replaced with ‘assay Neurobasal medium’ (as above excluding heat inactivated FCS), and then the cells were cultured for a further five days.
The drug was added to the culture plate on Day 6 of culture as follows. 8 point compound serial dilutions were generated in DMSO at a concentration of ×1000 that of the final assay concentration (FAC). Compound solutions were then prepared by adding 999 ul of ‘Assay Neurobasal media’ (as described in above section) to 1 ul of DMSO compound stock. The total amount of the medium was removed from each of the cell plate wells, and […] of ‘Assay Neurobasal media’ was added followed by […] of compound solution. The final DMSO concentration was 0.1%. […]
Cell survival was evaluated using an Alamar assay according to the following procedure. […]
Measurement of fluorescence intensity for each well was the carried out at 540/590 nm using a Pherastar plus plate reader (BMG labtech). […]
Human/Rat β Amyloid (42) ELISA Kit Wako (#290-62601) and Human/Rat P Amyloid (40) ELISA Kit Wako (#294-62501) from Wako Pure Chemical Industries, Ltd. were used for Aβ ELISA. […] The results were shown as percentage of the control groups and IC50 values for each compound were determined using four parameter logistic fit model using the XLFIT5 software package (IDBS).

[2] = system: Aβ40; experiment: Amyloid detection: Aβ40 in rat brain and CSF after oral dosing (Wako ELISA); type: in vivo, Sprague Dawley rat; conditions: 10 mg/kg p.o.
Procedure: Male Sprague Dawley rats were acquired from Charles River UK Ltd. (Margate, UK) and housed according to UK Home Office guidelines. Drugs were made up to the appropriate concentrations in 0.5% methyl cellulose. Animals were dosed orally (2 mL/kg) by gavage at the doses outlined in Tables 1 to 4 below. At the time points post-dosing, specified in the Tables 1 to 4 below the animals were administered an i.p. injection of sodium pentobarbitone (approximately 330 mg/kg for terminal anaesthesia). Using a guillotine, the animals were decapitated and trunk blood collected into 15 ml Falcon tubes containing 100 IU heparin. Blood was vortexed followed by centrifugation at 6000 rpm, 4° C. for 5 minutes. Plasma was collected for DMPK and ELISA assays and stored at −80° C. until use. Brains were dissected out and divided along the midline, weighed and stored at −80° C. until further use. Amyloid Detection 100 ml of chilled 0.2% diethyl amine (DEA) in 50 mM NaCl (pH 10) was freshly prepared and 1 ml/25 mg brain tissue was added to each hemisphere (i.e. 40× brain volume). The brains were immediately homogenized using a Polytron PT 1200 for 1.5 minutes and samples left to incubate on ice for one hour after homogenisation. 3 ml of the homogenate was transferred to a polyallomer tube (Beckman #362333) and spun at 133000×g (55,000 rpm) for 45 min at 4° C. The supernatant was then neutralised to pH 8-8.3 by adding 1/10 volume 0.5M Tris/HCl, pH 6.8. The samples can be used fresh or snap frozen on dry-ice and stored at −80° C. until required for analysis The Wako Aβ40 ELISA kit (Code No. 294-62501) uses the monoclonal antibody BNT77, raised against epitope Aβ(11-28) and the monoclonal antibody BA27, which specifically detects the C-terminal portion of Aβ40. This kit is used for the quantitative determination of human or rat Aβ(1-40) and also N-terminally truncated Aβ40 species (Aβ(x-40)) in biological matrices such as tissue culture medium, tissue homogenate, CSF and plasma. For analysis, plasma and brain samples are diluted 1:1 with the standard diluent contained in the kit and CSF samples are diluted 1:8 with the standard diluent contained in the kit. The assay is carried out according to manufacturers instructions and samples are analysed in duplicate. Data is analysed using Microsoft Excel 2003 and statistical analysis is carried out using Genstat 9th Edition.

[3] = Aβ ELISA, rat primary cortical neurons, Aβ species (x-40 or x-42) not given, read-out: IC50

Row | IC50 [1, 3] [nM] | SMILES | reduction of Aβ40 in the CSF ([2]; 4 hours) [%] | reduction of Aβ40 in the brain ([2]; 4 hours) [%] | reduction of Aβ40 in the CSF ([2]; 6 hours) [%] | reduction of Aβ40 in the brain ([2]; 6 hours) [%] | IC50 ([1]; Rattus norvegicus) [nM]
1 | 4 | COc1cnc(C(=O)Nc2ccc(F)c([C@]34CO[C@H](C(F)F)[C@H]3CSC(N)=N4)c2)cn1 [Example 3, N-(3-((4aS,5S,7aS)-2-amino-5-(difluoromethyl)-4a,5,7,7a-tetrahydro-4H-furo[3,4-d][1,3]thiazin-7a-yl)-4-fluorophenyl)-5-methoxypyrazine-2-carboxamide] | 75 | 58 | 71 | 61 | 
2 | 12 | COc1cnc(C(=O)Nc2cc(F)c(F)c([C@]34CO[C@H](CF)[C@H]3CSC(N)=N4)c2)cn1 [Example 4, N-(3-((4aS,5S,7aS)-2-amino-5-(fluoromethyl)-4a,5,7,7a-tetrahydro-4H-furo[3,4-d][1,3]thiazin-7a-yl)-4,5-difluorophenyl)-5-methoxypyrazine-2-carboxamide] | 67 | 51 | 63 | 42 | 
3 |  | COc1cnc(C(=O)Nc2ccc(F)c([C@]34CO[C@H](CF)[C@H]3CSC(N)=N4)c2)cn1 [Example 2, N-(3-((4aS,5S,7aS)-2-amino-5-(fluoromethyl)-4a,5,7,7a-tetrahydro-4H-furo[3,4-d][1,3]thiazin-7a-yl)-4-fluorophenyl)-5-methoxypyrazine-2-carboxamide] | 85 | 63 | 69 | 65 | 4
